The values below come from patent publication US4409221A, “1,2,3,4,4a,9b-Hexahydro-4a-piperazinylmethyl-4-dibenzofuranone or -dibenzofuranol derivatives” (Riom Laboratories - Cerm S.A., priority 1981, dated 1983).

Series [1] can be described thus: acute toxicity rating (LD50) by oral administration in mice. The note with it: mouse, in vivo. As to the method:
(§1) The activity of the product under study is evaluated by comparing the amplitudes of the bronchospasms before and after treatment and calculating the percentage change. The duration of action of the compounds under study has also been observed. (Table I). This table also contains an acute toxicity rating (LD50) determined by oral administration in mice.

Series [2] concerns histamine type bronchospasms. The series can be described thus: anti-bronchoconstrictor activity in guineapigs, KONZETT and ROSSLER technique, histamine-induced bronchospasm. In kind it is in vivo. To be noted: histamine 5 μg/kg^-1 i.v.; for inhibition at 5 mg/kg / inhibition at 1 mg/kg: iv, anaesthetised guineapigs, read-out: Percentage Inhibition. As to the method:
(§2) The anti-bronchoconstrictor activity of the compounds of the invention is evaluated in guineapigs by the KONZETT and ROSSLER technique.
(§3) After being anaesthetised with ethyl carbamate and submitted to tracheotomy, the animals are given artificial breathing at constant volume and the intertracheal pressure is recorded, which makes an indirect measurement of the total pulmonary resistance possible. Histamine (5 μg/kg^-1 i.v.) is administered before, and at different time intervals after, intravenous administration of the compounds of the invention.
as §1

Series [3] has as its system serotoninergic bronchospasms. The series can be described thus: bronchospasm experiment repeated replacing histamine with serotonin. In kind it is in vivo, guineapigs. The note with it: iv, 1 h; compound 5 mg/kg^-1 intravenously; serotonin 20 μg/kg^-1 I.V.; observed during 60 minutes. The procedure: as §2, §3, §1
In addition, the bronchosparm experiment was repeated, but replacing histamine with serotonine, (20 μg/kg^-1, I.V.).

Molecules are shown by their SMILES. Structures can show the parent of a compound that is named as a salt.

`CCOC(CN1CCN(CC23Oc4ccc(F)cc4C2CCCC3O)CC1)c1ccccc1` (centres unmarked) [Compound 2, 1,2,3,4,4a,9b-hexahydro-4a-(1-[4-(2-ethoxy-2-phenyl)ethyl]piperazinyl)methyl-8-fluoro-4-dibenzofuranol, 2 HCl]: in series [1], the LD50 is 900 mg/kg. For the same molecule, in series [2] (compound 5 mg/kg^-1 I.V.), the “Duration (duration of action)” value was more than 60 min and the inhibition at 5 mg/kg worked out at 95 ± 3.1%.
For `CCOC(CN1CCN(CC23Oc4c(OC)cccc4C2CCCC3=O)CC1)c1ccccc1` (centres unmarked) [Compound 3], the median lethal dose (LD50) in series [1] stood at 320 mg/kg. Besides, in series [2] (compound 5 mg/kg^-1 I.V.), the “Duration (duration of action)” value was more than 45 min and the inhibition at 5 mg/kg was 97.5 ± 2.5%.
The matching figures for `CCOC(CN1CCN(CC23Oc4ccc(OC)cc4C2CCCC3O)CC1)c1ccccc1` (centres unmarked) [Compound 6]: 900 mg/kg, more than 45 min and 48.2 ± 9.2%.
In the case of `CCOC(CN1CCN(CC23Oc4ccccc4C2CCCC3O)CC1)c1ccccc1` (centres unmarked) [Compound 1, 1,2,3,4,4a,9b-hexahydro-4a-(1-[4-(2-ethoxy-2-phenyl)ethyl]piperazinyl)methyl-4-dibenzofuranol], the inhibition at 5 mg/kg amounted to 87.6% in series [3] and 100% in series [2] (compound 5 mg/kg^-1 I.V.). The “Duration (duration of action)” value in series [2] (compound 1 mg/kg^-1 I.V.) and in series [2] (compound 5 mg/kg^-1 I.V.) was more than 60 min in each case. Further, in series [2] (compound 1 mg/kg^-1 I.V.), the inhibition at 1 mg/kg turned out to be 87.7 ± 6.6%.
In series [1], `CCOC(CN1CCN(CC23Oc4ccccc4C2CCCC3=O)CC1)c1ccccc1` (centres unmarked) [Compound 5, 1,2,3,4,4a,9b-hexahydro-4a-(1-[4-(2-ethoxy-2-phenyl)ethyl]piperazinyl)methyl-4-dibenzofuranone] returned an LD50 of 900 mg/kg. In series [2] (compound 5 mg/kg^-1 I.V.), the “Duration (duration of action)” value is more than 45 min and the inhibition at 5 mg/kg worked out at 80.2 ± 9.9%.
On to `COC(CN1CCN(CC23Oc4ccccc4C2CCCC3O)CC1)c1ccccc1` (centres unmarked) [Compound 8], for which the LD50 in series [1] is 480 mg/kg. Further, in series [2] (compound 1 mg/kg^-1 I.V.), the “Duration (duration of action)” value is more than 60 min and the inhibition at 1 mg/kg amounted to 95.5 ± 4.6%.

Usually LD50 stands for the dose expected to kill half of the subjects tested. One may read the inhibition as the relative decrease from the control value, in per cent.
